Assays:
[1] = target: T1, D(2) dopamine receptor (Homo sapiens, UniProt P14416); test: cAMP GloSensor Assay: HEK293T cells co-expressing the cAMP biosensor GloSensor-22F (Promega) and hD2 receptors were seeded (10,000 cells/20 ul/well) into white, clear-bottom, tissue culture plates in HBSS, 10% FBS, 20 mM HEPES, pH 7.4. After a one- to two-hour recovery, cells were treated with 10 ul of 3x test or reference drug prepared in HBSS, 10% FBS, 20 mM HEPES, pH 7.4. After 30 minutes, cells were challenged with 10 ul of 1,200 nM (4x) isoproterenol in 8% (4x) GloSensor reagent. Luminescence per well per second was read on a Wallac TriLux microbeta plate counter. Data were normalized to the isoproterenol response (100%) and the maximal quinpirole-induced inhibition thereof (0%) and regressed using the sigmoidal dose-response function built into GraphPad Prism 4.0.; format: functional, cell-based, HEK-293T
[2] = target: T1, D(2) dopamine receptor; test: Beta-Arrestin Recruitment (Tango) Assay: Recruitment of β-arrestin to agonist-stimulated D2 receptors was performed using a previously described Tango-type assay (Barnea et al., Proc. Natl. Acad. Sci. USA 105:64 (2008)). Briefly, HTLA cells stably expressing β-arrestin-TEV protease and a tetracycline transactivator-driven luciferase were plated in 15-cm dishes in DMEM containing 10% fetal bovine serum and transfected (via calcium phosphate) with 20 μg of a D2V2-TCS-tTA construct (Barnea et al., Proc. Natl. Acad. Sci. USA 105:64 (2008)). The next day, cells were plated in white, clear-bottom, 384-well plates (Greiner, 10,000 cells/well, 50 μl/well) in DMEM containing 1% dialyzed fetal bovine serum. The following day, the cells were challenged with 10 μl/well of reference agonist (6 μM) or D2 test ligand (6 μM)±reference agonist prepared in HBS, 20 mM HEPES, pH 7.4, 18% DMSO (final ligand concentrations were 1 μM, final DMSO concentration was 3%).; format: functional, cell-based

T1 sequence (P14416 whole entry): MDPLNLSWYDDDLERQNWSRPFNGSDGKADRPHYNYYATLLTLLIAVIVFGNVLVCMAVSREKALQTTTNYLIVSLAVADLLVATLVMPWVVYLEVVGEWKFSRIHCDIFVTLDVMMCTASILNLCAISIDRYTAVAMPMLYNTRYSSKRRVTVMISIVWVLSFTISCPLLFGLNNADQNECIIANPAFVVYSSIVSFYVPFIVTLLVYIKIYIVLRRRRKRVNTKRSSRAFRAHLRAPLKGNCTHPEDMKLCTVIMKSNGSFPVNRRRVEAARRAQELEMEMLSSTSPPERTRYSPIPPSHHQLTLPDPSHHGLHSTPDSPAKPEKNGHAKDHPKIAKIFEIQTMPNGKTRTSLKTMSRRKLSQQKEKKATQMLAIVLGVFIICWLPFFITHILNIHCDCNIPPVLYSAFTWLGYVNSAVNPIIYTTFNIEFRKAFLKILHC

SMILES: COc1ccccc1N1CCCN(CCCCOc2ccc3c(n2)NC(=O)CC3)CC1
- EC50 [1]: 222 nM
- EC50 [2]: 6.1 nM
